# ChEMBL document CHEMBL1139783, “Cyclonatsudamine A, a new vasodilator cyclic peptide from Citrus natsudaidai” (2007)
# The source made the active and inactive calls. No cut-off for these calls is given here. Where a SMILES comes first, the peptide text is derived from it.
# Legend:
# Aorta [1] = assay: Vasorelaxation effect on norepinephrine-induced contractions in rat endothelium-denuded aorta; format: functional, tissue-based
# Aorta [2] = assay: Inhibition of drug-induced vasorelaxation in rat aorta precontracted with norepinephrine in presence of nitric oxide synthase inhibitor L-NAME; format: functional, tissue-based
# Aorta [3] = assay: Vasorelaxation effect on norepinephrine-induced contractions in rat aorta with endothelium at 0.1 uM; format: functional; parameters: scale not given: the % may be the effect or the level left
# Aorta [4] = assay: Vasorelaxation effect on norepinephrine-induced contractions in rat aorta with endothelium at 100 uM; format: functional; parameters: scale not given: the % may be the effect or the level left
structure (smiles),measurement,setting,value
CC(C)C[C@@H]1NC(=O)[C@H](Cc2ccc(O)cc2)NC(=O)CNC(=O)[C@H](CO)NC(=O)[C@@H]2CCCN2C(=O)[C@@H]2CCCN2C(=O)[C@H](CC(C)C)NC1=O [CYCONATSUDAMINE A] (cyclo(GYLLPPS)),Activity,Aorta [1],inactive
same,Activity,Aorta [2],Active
same,Activity,Aorta [3],40%
same,Activity,Aorta [4],80%
